One may read the IC50 as the concentration that inhibits the measured activity by half. Lower therefore signals greater potency in that assay.

Where a chain is given by its changes, count along the chain named. Where “and” joins values, the source holds several entries; their conditions need not be identical. Equal entries are not always repeated. Some results are limits rather than exact numbers.

The values that follow come from article PMC12084609, “Structural insights into small-molecule agonist recognition and activation of complement receptor C3aR” (The EMBO Journal, 2025).

Common to all, as to format: cell-based
In one assay the target is T1, C3aR P99^3.29A (Homo sapiens, UniProt Q16581, P99A).
T1 construct: expressed in transfected cells; host or cells: HEK293T
T1 sequence (Q16581 1-482 P99A): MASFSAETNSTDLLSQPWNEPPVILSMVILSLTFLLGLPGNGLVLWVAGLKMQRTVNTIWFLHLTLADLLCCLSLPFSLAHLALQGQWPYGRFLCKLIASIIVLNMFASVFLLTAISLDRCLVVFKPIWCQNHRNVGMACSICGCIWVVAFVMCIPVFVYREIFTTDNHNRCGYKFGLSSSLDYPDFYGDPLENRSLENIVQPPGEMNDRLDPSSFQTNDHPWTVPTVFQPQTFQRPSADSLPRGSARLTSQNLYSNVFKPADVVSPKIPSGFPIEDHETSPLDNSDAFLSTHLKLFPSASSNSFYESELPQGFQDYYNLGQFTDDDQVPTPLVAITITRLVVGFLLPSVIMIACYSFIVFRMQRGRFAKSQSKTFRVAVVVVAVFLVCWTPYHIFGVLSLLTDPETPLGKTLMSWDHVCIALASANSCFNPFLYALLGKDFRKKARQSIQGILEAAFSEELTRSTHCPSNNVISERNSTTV
The assay can be described thus: GloSensor-based cAMP assay, C3aR mutant P99A. Here is the method:
(§1) HEK293T cells were seeded on 6-well plates (NEST) and transfected with pGlosensor™-22F plasmids (Promega) and pcDNA3.1 plasmids encoding C3aR or its mutants an with N-terminal FLAG tag. After 48 h, cells were detached with Accutase solution (Sigma-Aldrich) and washed with PBS, and resuspended in assay buffer (CO2-independent medium with 0.5 mg mL^−1D-luciferin). 100,000–200,000 cells were seeded on 96-well white bottom plates (SPL) and incubated at 37 °C for 45 min followed by 45 min incubation at room temperature. After 90 min of incubation, basal luminescence signals were recorded. In total, 25 μl of test ligand with various concentrations and 1 μM Forskolin (Sigma-Aldrich) were treated to the cells and luminescence signals were measured by Tristar 2 LB 942 multimode reader (Berthold). […] Relative luminescence unit (%) was calculated with the signal of wells treated with vehicle as 0% and the signal of wells treated with 1 μM Forskolin as 100% (DiRaddo et al, [2014]). Nonlinear regression was performed using a three-parameter logistic equation.
(In general: Changes in cAMP serve as a functional read-out for many G protein-coupled receptors.)

Another assay has as its target T2, C3aR R340^5.42A (Homo sapiens, UniProt Q16581, R340A).
T2 construct: expressed in transfected cells; host or cells: HEK293T
T2 sequence (Q16581 1-482 R340A): T1 sequence (Q16581 1-482 P99A) with A99P, R340A
The assay can be described thus: GloSensor-based cAMP assay, C3aR mutant R340A. On the procedure: as §1

For assay [1], the target named is T3, C3aR I102^3.32A/I421^7.39A (Homo sapiens, UniProt Q16581, I102A/I421A).
T3 construct: expressed in transfected cells; host or cells: HEK293T
T3 sequence (Q16581 1-482 I102A/I421A): T1 sequence (Q16581 1-482 P99A) with A99P, I102A, I421A
The assay can be described thus: GloSensor-based cAMP assay, C3aR double mutant I102A/I421A. Here is the method:
as §1

Where [2] appears, read: Dunnett's multiple comparisons test, WT minus mutant.

With `Cc1cc(C(c2ccc(Cl)cc2)c2ccc(Cl)cc2)sc1C(=O)N[C@@H](CCCNC(=N)N)C(=O)O` [JR14a, reference compound], the “Mean Diff. of pIC50, WT vs. P99A” value at C3aR P99^3.29A (setting [2]) is reported as -0.103. The IC50 against C3aR P99^3.29A (IC50, P99^3.29A, dose-response plot) was 4.08 nM; against C3aR P99^3.29A (pIC50 (Replicate), P99^3.29A, individual replicates), 4.9 nM and 5.25 nM and 2.69 nM; against C3aR R340^5.42A (IC50, R340^5.42A, dose-response plot), 478 nM; at C3aR R340^5.42A (pIC50 ± SEM (Mean), R340^5.42A, mean of independent experiments) it was 537 nM; in assay [1] (IC50, I102^3.32A/I421^7.39A, dose-response plot), 1590 nM; in assay [1] (pIC50 (Replicate), I102^3.32A/I421^7.39A, individual replicates), 2450 nM and 1150 nM and 1740 nM. Besides, half-maximal inhibition in assay [1] (pIC50 ± SEM (Mean), I102^3.32A/I421^7.39A, mean of independent experiments) (IC50) required 1700 nM. The remaining activity at 1 µM at C3aR P99^3.29A (P99A, Log[JR14a (M)] -6, single replicates, read-out: cAMP response (% Forskolin)) worked out at 8.38%; on C3aR R340^5.42A (R340A, Log[JR14a (M)] -6, single replicates, read-out: cAMP response (% Forskolin)), 78.9%. The remaining activity at 0.1 µM was 9.9% on C3aR P99^3.29A (P99A, Log[JR14a (M)] -7, single replicates, read-out: cAMP response (% Forskolin)) and 99.9% at C3aR R340^5.42A (R340A, Log[JR14a (M)] -7, single replicates, read-out: cAMP response (% Forskolin)). The remaining activity at 0.001 µM at C3aR P99^3.29A (P99A, Log[JR14a (M)] -9, single replicates, read-out: cAMP response (% Forskolin)) was 77.4%. Moreover, the remaining activity at 0.0001 µM on C3aR P99^3.29A (P99A, Log[JR14a (M)] -10, single replicates, read-out: cAMP response (% Forskolin)) turned out to be 102%; at C3aR R340^5.42A (R340A, Log[JR14a (M)] -10, single replicates, read-out: cAMP response (% Forskolin)), 105%. Moreover, the remaining activity at 10 pM on C3aR P99^3.29A (P99A, Log[JR14a (M)] -11, single replicates, read-out: cAMP response (% Forskolin)) was 104%; at C3aR R340^5.42A (R340A, Log[JR14a (M)] -11, single replicates, read-out: cAMP response (% Forskolin)), 104%. The “ΔpIC50 ± SE of Diff.” value is 0.10 ± 0.06 on C3aR P99^3.29A (P99^3.29A relative to WT C3aR), -2.28 ± 0.14 on C3aR R340^5.42A (R340^5.42A relative to WT C3aR) and -2.34 ± 0.08 in assay [1] (I102^3.32A/I421^7.39A relative to WT C3aR). Further, the “decrease in IC50 values vs WT” value at C3aR P99^3.29A (P99^3.29 to Ala, relatively mild effect on downstream signaling) is less than 10 fold. Further, the “Mean Diff. of pIC50, WT vs. R340A” value at C3aR R340^5.42A (setting [2]) came to 2.282.
